Results on 21 compounds are retold here after ChEMBL document CHEMBL1926662, “Trace amine-associated receptor 1 is a stereoselective binding site for compounds in the amphetamine class” (Bioorg Med Chem, 2011).

For assay [1], the target named is T1, Trace amine-associated receptor 1 (Homo sapiens, UniProt Q96RJ0).
T1 sequence (Q96RJ0 whole entry): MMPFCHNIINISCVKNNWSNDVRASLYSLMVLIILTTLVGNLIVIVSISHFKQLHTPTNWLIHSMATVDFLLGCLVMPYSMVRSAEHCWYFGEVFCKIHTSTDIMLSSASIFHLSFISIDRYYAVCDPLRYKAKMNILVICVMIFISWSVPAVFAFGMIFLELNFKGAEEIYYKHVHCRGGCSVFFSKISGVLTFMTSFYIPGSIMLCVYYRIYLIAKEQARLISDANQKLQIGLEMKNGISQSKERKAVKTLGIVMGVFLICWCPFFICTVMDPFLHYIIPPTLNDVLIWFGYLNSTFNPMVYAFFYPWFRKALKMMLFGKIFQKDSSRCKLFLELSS
Put plainly: Activation of C-terminal HA epitope tagged human TAAR1 expressed in RD-HGA16 cells co-expressing Gq protein, Galpha16 by cAMP accumulation assay. Type of assay: functional, cell-based. On the technique in general: Changes in cAMP serve as a functional read-out for many G protein-coupled receptors.

The target in assay [2] is T2, Trace amine-associated receptor 1 (Macaca mulatta, UniProt Q8HZ64).
T2 sequence (Q8HZ64 whole entry): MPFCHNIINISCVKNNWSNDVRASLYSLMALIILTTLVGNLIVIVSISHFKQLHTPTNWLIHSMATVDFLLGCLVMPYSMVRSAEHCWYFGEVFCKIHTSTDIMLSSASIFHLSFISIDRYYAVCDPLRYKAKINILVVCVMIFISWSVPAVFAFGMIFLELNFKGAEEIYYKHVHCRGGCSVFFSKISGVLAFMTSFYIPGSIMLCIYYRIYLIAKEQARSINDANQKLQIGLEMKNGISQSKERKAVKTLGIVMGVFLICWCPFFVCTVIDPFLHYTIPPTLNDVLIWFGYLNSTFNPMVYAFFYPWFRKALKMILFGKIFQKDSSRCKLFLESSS
Put plainly: Activation of rhesus monkey TAAR1 expressed in RD-HGA16 cells co-expressing Gq protein assessed as cAMP accumulation by fluorescence plate reader. The class given is functional, cell-based.

Assay [3] addresses T1, Trace amine-associated receptor 1. Kind of assay: Activation of human TAAR1 expressed in Syrian hamster AV12-664 cells co-expressing GalphaS protein assessed as accumulation of cAMP after 30 mins using cAMP XS EA/CL as substrate by luminescence method in presence of RX821002 and alprenolol. The class given is functional, cell-based.
Assay [4] concerns the target T3, Trace amine-associated receptor 1 (Mus musculus, UniProt Q923Y8). Put plainly: Activation of mouse TAAR1 expressed in human HEK293 cells assessed as accumulation of [3H]cAMP after 1 hr by liquid scintillation counting. The class given is functional, cell-based.
In assay [5] the target is T4, Trace amine-associated receptor 1 (Rattus norvegicus, UniProt Q923Y9). Kind of assay: Activation of rat TAAR1 expressed in HEK293 cells assessed as accumulation of [3H]cAMP after 1 hr by liquid scintillation counting. The class given is functional, cell-based.
The nature of the next assay: cells. As to conditions: HEK293; call rule not given here.
The target in assay [6] is T4, Trace amine-associated receptor 1. Kind of assay: Activation of rat TAAR1 expressed in HEK293 cells assessed as accumulation of [3H]cAMP after 1 hr by competitive binding assay. Type of assay: functional, cell-based.
The target in assay [7] is T1, Trace amine-associated receptor 1. Kind of assay: Activation of human TAAR1 expressed in human HEK293T cells assessed as cAMP accumulation after 10 mins by BRET assay. Type of assay: functional, cell-based, HEK-293T.
The target in assay [8] is T3, Trace amine-associated receptor 1. Kind of assay: Activation of mouse TAAR1 expressed in human HEK293 cells assessed as accumulation of cAMP after 15 mins. The class given is functional, cell-based.

The structures appear in SMILES notation.

T4 sequence (Q923Y9 whole entry): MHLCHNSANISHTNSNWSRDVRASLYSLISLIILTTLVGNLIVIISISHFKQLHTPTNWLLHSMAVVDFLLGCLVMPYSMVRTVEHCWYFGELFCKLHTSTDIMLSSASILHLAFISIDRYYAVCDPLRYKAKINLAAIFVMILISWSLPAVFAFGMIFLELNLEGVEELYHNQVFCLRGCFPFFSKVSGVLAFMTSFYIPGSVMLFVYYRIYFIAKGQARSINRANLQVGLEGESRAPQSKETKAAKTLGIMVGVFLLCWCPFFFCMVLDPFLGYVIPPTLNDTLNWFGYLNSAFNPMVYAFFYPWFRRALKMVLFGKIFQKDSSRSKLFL
T3 sequence (Q923Y8 whole entry): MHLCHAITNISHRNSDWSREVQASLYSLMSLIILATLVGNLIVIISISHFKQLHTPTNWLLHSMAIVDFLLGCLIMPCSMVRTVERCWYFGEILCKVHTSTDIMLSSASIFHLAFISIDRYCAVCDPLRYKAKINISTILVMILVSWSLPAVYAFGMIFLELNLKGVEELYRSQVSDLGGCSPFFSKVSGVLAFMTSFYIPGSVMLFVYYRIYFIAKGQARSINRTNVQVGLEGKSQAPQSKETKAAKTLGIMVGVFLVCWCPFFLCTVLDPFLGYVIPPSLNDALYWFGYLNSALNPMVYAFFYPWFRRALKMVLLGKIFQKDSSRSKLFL
Description for cells: Activation of chimeric rat-human expressed in human HEK293 cells assessed as accumulation of [3H]cAMP after 1 hr by liquid scintillation counting

The term EC50 denotes the midpoint of the concentration-response curve. `COc1cc(C[C@H](C)N)c(OC)cc1C`: the EC50 entry in [1] (rd-hga16) is “Not Active”; in [2] (read-out: EC50), 900 nM.

Consider `NCCc1ccc(Oc2ccc(O)cc2)c(I)c1`, for which the EC50 in [3] was 1510 nM.

As for `C[C@@H](N)Cc1ccc(O)cc1`, the EC50 in [1] (read-out: EC50) is 3160 nM; in [2] (read-out: EC50) it was 424 nM; in assay [4] it was 5650 nM; in assay [5], 60 nM; in “cells” it was > 8540 nM.

Turning to `C[C@H](N)Cc1ccc2c(c1)OCO2`, the EC50 was found to be 6570 nM in assay [1] (read-out: EC50) and 1350 nM in [2] (read-out: EC50).

`C[C@@H](N)Cc1ccc2c(c1)OCO2`: the results for the EC50 in assay [1] (read-out: EC50) and in [2] (read-out: EC50) were 11700 nM and 2480 nM, respectively.

As for `COc1cccc(C[C@@H](C)N)c1`, the EC50 in assay [1] (read-out: EC50) was 6500 nM; in assay [2] (rd-hga16) it was “Not Active”.

For `CCc1cc(OC)c(C[C@H](C)N)cc1OC`, the EC50 result in assay [2] (rd-hga16) was “Not Active”.

Consider `CCc1cc(OC)c(C[C@@H](C)N)cc1OC`, for which the EC50 entry in assay [1] (rd-hga16) and in assay [2] (rd-hga16) was “Not Active” each time.

Consider `CN[C@H](C)Cc1ccccc1`, for which the EC50 in assay [1] (read-out: EC50) is 3300 nM; in assay [2] (read-out: EC50) it was 2500 nM; in [4], 2440 nM; in assay [5], 1190 nM; in “cells”, 9830 nM.

As for `CN[C@@H](C)Cc1ccc2c(c1)OCO2`, the EC50 in [2] (read-out: EC50) was 16100 nM.

As for `C[C@@H](N)Cc1cccc(C(F)(F)F)c1`, the EC50 entry in [1] (rd-hga16) was “Not Active”.

On to `COc1cc(C[C@@H](C)N)c(OC)cc1C`, for which the EC50 result in assay [1] (rd-hga16) and in assay [2] (rd-hga16) was “Not Active” throughout.

In the case of `CN[C@H](C)Cc1ccc2c(c1)OCO2`, the figures for the EC50 result in assay [1] (rd-hga16) and in [2] (read-out: EC50) were “Not Active” and 7400 nM, respectively.

Take `COc1cc(C[C@H](C)N)c(OC)cc1Br`: the EC50 was 15300 nM in assay [1] (read-out: EC50) and 2140 nM in assay [2] (read-out: EC50).

With `COc1cc(C[C@@H](C)N)c(OC)cc1Br`, the EC50 in assay [1] (read-out: EC50) amounted to 31900 nM; in assay [2] (read-out: EC50) it was 13900 nM.

For the compound `CC(N)Cc1ccc(O)cc1` (racemic) [HYDROXYAMPHETAMINE], the EC50 in [6] came to 50 nM.

In the case of `CNC(C)Cc1ccc2c(c1)OCO2` (racemic) [MIDOMAFETAMINE], the EC50 in assay [6] amounted to 1700 nM.

Consider `COc1cccc(C[C@H](C)N)c1` [(S)-M-METHOXYAMPHETAMINE], for which the EC50 worked out at 1900 nM in assay [1] (read-out: EC50) and 3300 nM in [2] (read-out: EC50).

With `C[C@H](N)Cc1ccc(O)cc1` [(S)-P-HYDROXYAMPHETAMINE], the EC50 in assay [1] (read-out: EC50) is 2960 nM; in assay [2] (read-out: EC50) it was 101 nM; in assay [4], 280 nM; in assay [5] it was 190 nM; in the assay “cells”, > 5420 nM.

Take `CN[C@@H](C)Cc1ccccc1` [METHAMPHETAMINE]: the EC50 was 1500 nM in [1] (read-out: EC50); 1300 nM in assay [7]; 5300 nM in assay [2] (read-out: EC50); 920 nM in [4]; 890 nM in [5]; 70 nM in assay [8]. For the same compound, in the assay “cells”, the EC50 amounted to 4440 nM.

Consider `NCCc1ccccc1` [PHENETHYLAMINE], for which, in assay [3], the 50% effective concentration (EC50) came to 106 nM.
